Test results taken from patent US20190160035A1, “METHOD OF TREATMENT” (QBIOTICS LIMITED, priority 2016, published 2019).

Assays:
[1] = system: cutaneous MCT or subcutaneous MCT; test: Example 1: RECIST v.1.1 tumor response after a single intratumoral Compound 1 injection (0.4 mL/cm^3 of tumor) with prophylactic and supportive medications; type: in vivo, Canis lupus familiaris (dog)
Text: Study dogs were managed similarly and with due regard for their welfare. Animals were enrolled in the study in accordance with instructions provided in Australian Pesticides and Veterinary Medicines Authority (APVMA) small-scale trials permit PER7250 (unregistered drug use). All animals were client-owned, treated by Australian registered veterinarians, and cases managed under their direct supervision. An enrolled dog could be removed from the study prior to study completion under the following circumstances: • 1. If at any time during the study, in the opinion of the attending veterinarian, the dog's welfare is at risk due to non-response of the tumor to Compound 1 treatment or due to a serious adverse event, the veterinarian could elect to withdraw the dog from the study. Following withdrawal, the dog's attending veterinarian could then administer supportive treatment and veterinary care that they deem is appropriate and in the best interest of the animal. • 2. The owner elected to voluntarily withdraw the dog from the study.
Dogs were selected for the study if they met the criteria in Table 1 below.
Compound 1 was prepared for intratumoral injection by preparation of a composition comprising 1 mg/mL Compound 1 in a 40% propylene glycol solution with 30 mM acetate buffer, pH 4.2. The dosage level was 0.4 mL/cm^3 of tumor.
The drug was administered to each dog as 0.4 mL per cm^3 of tumor volume (40% v/v tumor) as determined on the day of dosing (Day 0). Tumor volume was determined using the modified ellipsoidal calculation=½×length×width×depth (cm) (Monga et al, 2000; Celikoglu et al, 2008).
Wherever possible, the tumor and a 2 cm border surrounding the tumor was shaved prior to treatment. To deliver the drug, the needle of the dosing syringe was inserted into the tumor at the injection point and moved in a radial manner in 2- and 3-dimensions. Treatment administration was recorded on the individual “Case Report Form”. Study dogs were clinically examined at 2-4 and 24 hours, and 7 (±2), 14 (±2) and 28 (±2) days post-treatment (and unscheduled visits at attending veterinarian discretion).
Each supervising veterinarian was given latitude to provide and record prophylactic and supportive medications as deemed appropriate for managing potential paraneoplastic events and tumor site necrosis following treatment with Compound 1. […]
Determination of efficacy was based on objective tumor measurements made according to the Response Evaluation Criteria in Solid Tumors (RECIST) v.1.1 guideline (Eisenhauer et al, 2009) using the longest unidirectional tumor measurement (diameter). […] Measurements were recorded using digital calipers at pre-treatment and at 7(±2), 14(±2) and 28(±2) days post treatment. […]

[2] = system: MCT (cutaneous and subcutaneous); test: Example 7: treatment of MCT (repeat of Example 1), complete response and healing by time point; type: in vivo, dogs; conditions: for Complete response: Cumulative % / Complete response: Number of tumors on given study day: 11 treated tumors in 10 dogs; for Healing: Cumulative % / Healing: Number of tumor sites healed on given study day: 11 treated tumors
Description: The study of Example 1 was repeated. The drug used was Compound 1 formulated in 40% propylene glycol and 30 MM acetate buffer at pH 4.2.
While tumor evaluation and measurement data for 11 cases are presented, this actually represents only 10 dogs, one of which had two tumors treated consecutively (identified as cases SI-01 and SI-02). PK sampling was performed only once for this dog (SI-01).
Of the other ten tumors, nine were considered CR by day 7 (+2) and one was CR by day 14 (+2). The investigator also reported that all of these tumors remained a CR on day 28 […].
Healing was more variable for the cases, with one healed at the day 14 visit and over half the tumor sites healed by the day 28 visit. The two cases with the largest tumor volumes at day 0 (SI-04 5.6 cm^3, and SI-11 6.8 cm^3) required healing time beyond the day 28 visit, i.e., an additional four weeks for SI-04 and an additional 19.7 weeks for SI-11. For SI-11, it was noted the dog was licking the tumor site and the investigator felt it may have prolonged the healing time. The investigator believed the wound required intervention on this case that included debridement once on study day 56 followed by periodic bandage replacement.

C/C=C(\C)C(=O)O[C@@H]1[C@@H](C)[C@@]2(O)[C@H]([C@@H]3C(C)(C)[C@]13OC(=O)[C@@H](C)CC)[C@@H]1O[C@]1(CO)[C@@H](O)[C@]1(O)C(=O)C(C)=C[C@H]12 [Compound 1, 12-tigloyl-13-(2-methylbutanoyl)-6,7-epoxy-4,5,9,12,13,20-hexahydroxy-1-tigliaen-3-one]
Number of dogs with partial response (PR) ([1]; Day 28, 11 dogs available of 12 treated): 3 | Number of dogs with complete response (CR) ([1]; Day 28, 11 dogs available of 12 treated, 1.0 mg/mL, 0.4 mL/cm^3): 6 | Tumor cytology in the autopsied injection site ([1]; dog C03-T-07, Day 4, personal correspondence with attending veterinarian): no tumor cytology was identified | RECIST classification ([1]; one value per dog, Day 28, single intratumoral dose, 1.0 mg/mL, 0.4 mL/cm^3 tumor): PR (partial response (PR, at least 30% decrease in the longest diameter of target lesion)) | Response of the five cases with leakage of IVP upon injection ([2]; SI-01, SI-02, SI-04, SI-05, SI-10, on or before the day 14 visit): complete response | Complete response: Cumulative % ([2]; Study day 7 (+2)): 82% | Complete response: Number of tumors on given study day ([2]; Study day 7 (+2)): 9 | Healing: Cumulative % ([2]; Study day 14 (+2)): 9% | Healing: Number of tumor sites healed on given study day ([2]; Study day 14 (+2)): 1 | Complete response: Cumulative % ([2]; Study day 14 (+2)): 91% | Complete response: Number of tumors on given study day ([2]; Study day 14 (+2)): 1 | Healing: Cumulative % ([2]; Study day 28 (+4)): 55% | Healing: Number of tumor sites healed on given study day ([2]; Study day 28 (+4)): 5 | Healing: Cumulative % ([2]; Study day 33): 64% | Healing: Number of tumor sites healed on given study day ([2]; Study day 33): 1 | Healing: Cumulative % ([2]; Study day 42): 73% | Healing: Number of tumor sites healed on given study day ([2]; Study day 42): 1 | Healing: Cumulative % ([2]; Study day 56): 82% | Healing: Number of tumor sites healed on given study day ([2]; Study day 56): 1 | Healing: Cumulative % ([2]; Study day 166): 91% | Healing: Number of tumor sites healed on given study day ([2]; Study day 166): 1 | Change of tumor volumes after drug treatment ([2]; all tumors with the exception of SI-03): decreased in size | Course of MCT despite drug treatment ([2]; case SI-03, withdrawn after day 28 visit): continued to enlarge | Additional healing time beyond the day 28 visit ([2]; case SI-11, tumor volume 6.8 cm^3 at day 0, dog licking site, debridement day 56): 19.7 weeks | Status of the ten responding tumors on day 28 (+4) ([2]; investigator report): remained a CR | Number of tumors with a complete response (CR) during the study ([2]; of 11 tumors): Ten | Percent of tumors with a complete response (CR) during the study ([2]; of 11 tumors): 90.9% | Number of tumors considered CR by day 7 (+2) ([2]; of ten responding tumors): nine | Number of tumors CR by day 14 (+2) ([2]; of ten responding tumors, not CR by day 7): one | Number of cases healed at the day 14 visit ([2]; tumor site healing): one | Share of tumor sites healed by the day 28 visit ([2]; tumor site healing): over half
